Test: xn = mol fraction of the nth substance listed
Conditions: 101 kPa

CCCC[n+]1ccccc1.[Cl-] + CCCC[n+]1ccccc1.[Br-]
viscosity [mPa·s]
Conditions | 398.1 K | 403.1 K | 408.1 K | 413.1 K | 418.1 K | 423.1 K | 428.1 K | 433.1 K | 438.1 K | 443.1 K
x1 = 0.084 | – | – | 22.9 | 19.4 | 16.6 | – | 12.56 | 11.09 | 9.91 | 8.95
x1 = 0.169 | 33.5 | 27.8 | 23.3 | 19.7 | – | 14.63 | 12.79 | 11.3 | – | 9.1
x1 = 0.292 | 33.8 | 28.1 | 23.6 | 20 | 17.2 | 14.84 | 12.97 | – | 10.22 | 9.22
x1 = 0.389 | – | 28.5 | – | 20.3 | – | 15.07 | 13.18 | 11.63 | 10.37 | 9.35
x1 = 0.469 | – | 29.1 | 24.5 | 20.9 | 18 | 15.61 | 13.69 | 12.13 | – | 9.81
x1 = 0.611 | – | – | 25.1 | 21.4 | 18.4 | 16.03 | 14.06 | 12.46 | 11.15 | 10.07
x1 = 0.689 | – | – | – | 21.5 | – | 16.11 | 14.13 | 12.51 | 11.17 | 10.08
x1 = 0.785 | – | – | – | 21.9 | 18.9 | 16.43 | – | 12.76 | 11.41 | 10.29
x1 = 0.892 | – | – | – | – | – | – | 14.84 | – | – | 10.63

CC[n+]1ccccc1.[Cl-] + CCCC[n+]1ccccc1.[Cl-]
viscosity [mPa·s]
Conditions | x1 = 0.121 | x1 = 0.198 | x1 = 0.302 | x1 = 0.388 | x1 = 0.504 | x1 = 0.597 | x1 = 0.702 | x1 = 0.795 | x1 = 0.804
363.1 K | – | – | – | – | – | – | – | 58.2 | 57.9
368.1 K | – | – | – | – | – | – | – | 47.6 | 47.5
373.1 K | – | – | – | – | – | – | – | 39.3 | 39.3
378.1 K | – | – | – | – | – | – | – | – | 32.7
383.1 K | – | – | – | – | – | – | – | 27.4 | 27.4
388.1 K | – | – | – | – | – | 28.8 | 25.5 | 23.1 | –
393.1 K | – | – | – | – | – | 24.4 | 21.6 | 19.7 | –
398.1 K | – | – | – | 25.3 | – | 20.7 | – | 16.8 | –
403.1 K | – | – | – | 21.5 | 20.1 | 17.8 | 15.9 | 14.53 | –
408.1 K | – | – | 20.2 | 18.5 | 17.4 | 15.39 | 13.73 | 12.63 | 12.79
413.1 K | – | – | 17.5 | 15.98 | 15.22 | 13.41 | 11.98 | – | 11.23
418.1 K | 17.66 | 17.21 | 15.22 | 13.94 | – | 11.79 | 10.54 | 9.75 | 9.93
423.1 K | 15.42 | 15.14 | 13.36 | – | 11.92 | 10.44 | 9.33 | 8.67 | 8.86
428.1 K | 13.58 | 13.44 | 11.83 | 10.85 | 10.69 | 9.32 | – | – | 7.96
433.1 K | 12.06 | 12.04 | 10.56 | 9.69 | 9.66 | – | 7.5 | 7 | 7.21
438.1 K | 10.81 | 10.88 | – | 8.73 | 8.81 | 7.61 | – | 6.37 | 6.58
443.1 K | 9.77 | 9.92 | 8.64 | 7.94 | – | 6.96 | 6.22 | 5.84 | –

CCCC[n+]1ccccc1.[Cl-] + CC[n+]1ccccc1.[Br-]
viscosity [mPa·s]
Conditions | x2 = 0.104 | x2 = 0.193 | x2 = 0.313 | x2 = 0.408 | x2 = 0.484 | x2 = 0.604 | x2 = 0.64 | x2 = 0.694 | x2 = 0.797 | x2 = 0.894
368.1 K | – | – | – | – | 56.3 | 46 | 43.6 | 39.7 | – | –
373.1 K | – | – | – | – | 47.7 | 39.5 | 37.6 | 34.5 | – | –
378.1 K | – | – | – | – | 40.7 | 34.1 | 32.6 | 30.1 | 26 | –
383.1 K | – | – | – | 38.5 | 34.8 | 29.6 | 28.3 | 26.3 | 23 | –
388.1 K | – | – | – | 32.9 | – | 25.7 | 24.7 | – | 20.4 | –
393.1 K | – | 36 | 31.5 | 28.3 | 25.9 | 22.5 | – | 20.4 | – | 16.16
398.1 K | – | 30.5 | 27 | 24.4 | 22.5 | 19.7 | 19 | 18.01 | 16.16 | 14.53
403.1 K | 28.4 | 26.1 | 23.3 | – | 19.7 | – | 16.77 | 15.99 | 14.46 | 13.09
408.1 K | 24.4 | 22.4 | 20.2 | 18.5 | 17.27 | 15.38 | – | 14.24 | – | 11.82
413.1 K | 21 | – | 17.7 | 16.27 | 15.24 | 13.66 | – | – | – | 10.69
418.1 K | – | 16.98 | 15.51 | 14.37 | 13.52 | 12.2 | – | – | 10.53 | 9.7
423.1 K | 16.01 | 14.92 | – | 12.77 | 12.04 | 10.92 | 10.59 | 10.27 | – | –
428.1 K | 14.14 | 13.22 | – | 11.41 | 10.79 | – | 9.53 | – | 8.64 | 8.01
433.1 K | 12.59 | 11.8 | 10.96 | 10.25 | – | 8.86 | – | 8.41 | 7.85 | 7.31
438.1 K | 11.29 | 10.6 | 9.89 | 9.26 | 8.8 | – | 7.81 | 7.65 | 7.17 | –
443.1 K | 10.22 | 9.6 | 8.97 | 8.42 | 8.01 | 7.32 | – | 6.98 | – | 6.11

CC[n+]1ccccc1.[Cl-] + CC[n+]1ccccc1.[Br-]
viscosity [mPa·s]
Conditions | 403.1 K | 408.1 K | 413.1 K | 418.1 K | 423.1 K | 428.1 K | 433.1 K | 438.1 K | 443.1 K
x1 = 0.105 | 12.65 | 11.56 | 10.55 | 9.63 | 8.8 | 8.05 | 7.39 | 6.82 | 6.34
x1 = 0.196 | 12.66 | 11.53 | 10.51 | – | – | 7.97 | 7.31 | 6.75 | 6.27
x1 = 0.303 | 12.66 | – | 10.45 | 9.5 | – | – | 7.22 | 6.66 | 6.2
x1 = 0.387 | 12.65 | – | 10.31 | 9.37 | 8.55 | 7.84 | 7.23 | 6.69 | 6.22
x1 = 0.503 | 12.66 | 11.37 | – | 9.28 | 8.45 | 7.74 | – | 6.61 | 6.15
x1 = 0.613 | 12.67 | 11.33 | 10.19 | – | – | 7.65 | 7.05 | – | 6.08
x1 = 0.688 | – | 11.3 | 10.15 | 9.17 | 8.33 | – | 7 | 6.47 | 6.02
x1 = 0.803 | 12.66 | 11.26 | 10.08 | 9.08 | 8.24 | 7.52 | 6.9 | 6.38 | 5.94
x1 = 0.885 | 12.65 | 11.22 | 10.02 | 9.02 | – | 7.44 | 6.83 | 6.32 | 5.88

From a compilation of properties of binary mixtures (doi:10.1021/acs.iecr.0c01496)
